Data reported in USRE48267E1, “Variants of C-type natriuretic peptide” (priority 2009, dated 2020).
Where a SMILES comes first, the peptide text is derived from it. Bridges are numbered along the chain shown (N, C = ends). [ ]: non-standard residue; d: D form. The star is where a group is joined. CH3O(CH2CH2O)11CH2CH2CO = COCCOCCOCCOCCOCCOCCOCCOCCOCCOCCOCCOCCC(=O)*; Cit = NC(=O)NCCC[C@H](N)C(=O)O

Assays:
[1] = molecular target: T1, NPR-B (Mus musculus, UniProt Q6VVW5); experiment: stimulation of cGMP production in NIH3T3 cells; assay type: cell-based, murine; conditions: normalized to cell number and cGMP production in the presence of 1 uM wtCNP22; for cGMP Response rel. to 1 uM CNP22, 10 nM: NIH3T3 cells exposed to 10 nM peptide; for cGMP Response rel. to 1 uM CNP22, 1 uM: NIH3T3 cells exposed to 1 uM peptide
T1 construct: Murine NIH3T3 cells express endogenously the CNP signaling receptor, NPR-B; endogenous in cells; host or cells: NIH3T3
T1 sequence (Q6VVW5 17-1047): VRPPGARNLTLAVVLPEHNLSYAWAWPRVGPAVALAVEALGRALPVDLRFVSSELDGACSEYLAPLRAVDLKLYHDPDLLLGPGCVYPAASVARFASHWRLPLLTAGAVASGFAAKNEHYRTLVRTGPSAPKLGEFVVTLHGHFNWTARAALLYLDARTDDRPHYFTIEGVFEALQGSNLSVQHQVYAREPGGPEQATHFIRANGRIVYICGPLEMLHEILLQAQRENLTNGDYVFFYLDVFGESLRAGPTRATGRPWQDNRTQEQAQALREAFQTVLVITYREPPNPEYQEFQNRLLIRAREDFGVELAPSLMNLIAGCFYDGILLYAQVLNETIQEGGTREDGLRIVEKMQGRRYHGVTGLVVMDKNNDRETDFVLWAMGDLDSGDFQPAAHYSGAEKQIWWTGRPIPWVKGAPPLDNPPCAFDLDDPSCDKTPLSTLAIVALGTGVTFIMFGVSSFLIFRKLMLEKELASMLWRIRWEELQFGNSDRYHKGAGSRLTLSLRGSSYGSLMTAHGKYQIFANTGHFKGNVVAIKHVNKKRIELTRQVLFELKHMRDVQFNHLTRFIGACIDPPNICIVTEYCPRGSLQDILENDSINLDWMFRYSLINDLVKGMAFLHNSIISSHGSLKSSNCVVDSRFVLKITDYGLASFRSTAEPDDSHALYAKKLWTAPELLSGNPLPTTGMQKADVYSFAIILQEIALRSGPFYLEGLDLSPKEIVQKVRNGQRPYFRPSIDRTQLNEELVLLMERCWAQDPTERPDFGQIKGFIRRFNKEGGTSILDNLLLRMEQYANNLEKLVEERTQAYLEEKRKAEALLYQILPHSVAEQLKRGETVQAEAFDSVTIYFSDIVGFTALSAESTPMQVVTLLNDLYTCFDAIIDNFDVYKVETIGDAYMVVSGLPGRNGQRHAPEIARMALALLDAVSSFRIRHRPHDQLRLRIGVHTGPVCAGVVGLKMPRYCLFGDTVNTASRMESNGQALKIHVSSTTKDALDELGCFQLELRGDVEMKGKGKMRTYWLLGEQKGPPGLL
Procedure: To determine the functional activity of CNP variants, the production of cGMP was measured in NIH3T3 cells exposed to the CNP variants. Murine NIH3T3 cells express endogenously the CNP signaling receptor, NPR-B, which shares 98% protein sequence identity with human NPR-B. NIH3T3 cells were cultured in high glucose Dulbecco's Modified Eagle Medium supplemented with 10% fetal calf serum and antibiotics at 37° C. with 5% CO2). Twenty four to 48 hours prior to signaling, cells were passaged to 12-well plates with a density of 2-5×10^5 cells per well at the time of the assay. CNP variants were resuspended in 1 mM HCl to a stock concentration of 1 mg/mL (455 uM for wtCNP22) and subsequently diluted to a 30 uM working stock solution with phosphate-buffered saline (PBS). Ten-fold serial dilutions were prepared in phosphate-buffered saline. Culture medium was removed from the cells and replaced with 0.4 mL PBS/Dulbecco's modified Eagle medium (50/50, v/v) containing 0.75 mM isobutylmethylxanine. Plates were incubated at 37° C., 5% CO2 for 15 minutes before addition of 0.2 mL CNP variant in PBS and continued incubation at 37° C. for 15 minutes. Reactions were stopped by the addition of 0.2 mL lysis buffer supplied with the CatchPoint cGMP assay kit (Molecular Devices), and cGMP production was determined with the CatchPoint cGMP Assay (Molecular Devices). All stimulation experiments were performed in duplicate.
Tables 1-4 summarize the ability of CNP variants having backbone or side chain modifications, amino acid substitutions, N-terminal amino acid extensions, and/or N-terminal PEGylation, respectively, to stimulate cGMP production in NIH3T3 cells. In all four tables, the values for cGMP production in NIH3T3 cells exposed to 10 nM or 1 uM CNP variant are normalized to cell number and cGMP production in the presence of 1 uM wtCNP22.

[2] = molecular target: Recombinant human NEP (Homo sapiens, UniProt P08473); experiment: in vitro NEP cleavage assay (disappearance of non-cleaved CNP variant)
Chain of Recombinant human NEP (P08473 whole entry): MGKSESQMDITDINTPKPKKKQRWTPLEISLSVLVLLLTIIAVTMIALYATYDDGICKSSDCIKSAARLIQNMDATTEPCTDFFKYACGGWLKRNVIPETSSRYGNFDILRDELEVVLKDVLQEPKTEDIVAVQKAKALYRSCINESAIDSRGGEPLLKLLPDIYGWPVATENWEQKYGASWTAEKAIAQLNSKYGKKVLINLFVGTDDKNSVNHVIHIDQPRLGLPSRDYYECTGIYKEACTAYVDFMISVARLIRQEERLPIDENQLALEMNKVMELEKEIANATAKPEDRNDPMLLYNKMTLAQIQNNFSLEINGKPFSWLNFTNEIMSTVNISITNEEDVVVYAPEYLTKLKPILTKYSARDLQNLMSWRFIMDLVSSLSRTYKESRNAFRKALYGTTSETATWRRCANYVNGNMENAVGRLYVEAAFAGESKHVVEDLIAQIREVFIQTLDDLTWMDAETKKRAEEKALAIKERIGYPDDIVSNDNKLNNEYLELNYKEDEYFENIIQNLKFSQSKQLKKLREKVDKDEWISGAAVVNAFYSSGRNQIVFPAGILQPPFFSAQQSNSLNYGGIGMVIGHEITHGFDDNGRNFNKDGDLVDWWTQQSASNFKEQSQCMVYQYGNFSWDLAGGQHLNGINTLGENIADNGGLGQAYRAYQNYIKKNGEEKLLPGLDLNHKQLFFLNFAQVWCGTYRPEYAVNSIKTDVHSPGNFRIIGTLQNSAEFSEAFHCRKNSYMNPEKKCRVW
Procedure: To determine the effects of amino acid substitutions, amino acid extensions, backbone modifications, side chain modifications and PEGylation on the susceptibility of CNP variants to neutral endopeptidase (NEP) cleavage, peptide cleavage assays were carried out using an in vitro assay that monitored disappearance of the non-cleaved CNP variant.
Recombinant human NEP (1 ug/mL final concentration) was added to 100 uM CNP variant diluted in 0.1 M Tris, pH 7. The reaction mixture was incubated at 37° C. for various periods of time, and the reaction was quenched with EDTA (10 mM final) followed by heat denaturation. The reaction mixture was reduced and then the reaction products were analyzed using HPLC and mass spectroscopy. The half-life of the CNP variant was calculated based on the disappearance of intact CNP variant over time.

| SMILES | cGMP Response rel. to 1 uM CNP22, 10 nM [1] | cGMP Response rel. to 1 uM CNP22, 1 uM [1] | resistance to NEP cleavage (in words) [2] | NEP Cleavage (t1/2, min) ([2]; 100 uM peptide, 1 ug/mL NEP, 0.1 M Tris pH 7, 37° C., adjusted t1/2, CNP22 normalized to 80 min) |
| --- | --- | --- | --- | --- |
| CC[C@H](C)[C@@H]1NC(=O)[C@H](CCCNC(=N)N)NC(=O)[C@H](CC(=O)O)NC(=O)[C@H](CC(C)C)NC(=O)[C@H](CCCCN)NC(=O)[C@H](CC(C)C)NC(=O)CNC(=O)[C@H](Cc2ccccc2)NC(=O)[C@@H](NC(=O)CNC(=O)[C@H](CCCNC(=N)N)NC(=O)[C@H](CO)NC(=O)[C@H](CC(C)C)NC(=O)CN)CSSC[C@@H](C(=O)O)NC(=O)CNC(=O)[C@H](CC(C)C)NC(=O)CNC(=O)[C@H](CO)NC(=O)[C@H](CCSC)NC(=O)[C@H](CO)NC(=O)[C@H](CCCNC(=N)N)NC1=O [Analog AE, CNP22, K4R, G15R] (H-GLSRGCFGLKLDRIRSMSGLGC-OH; disulfide 6-22) | 0.3 | 0.3 | – | – |
| CC[C@H](C)[C@@H]1NC(=O)[C@H](CCCNC(=N)N)NC(=O)[C@H](CC(=O)O)NC(=O)[C@H](CC(C)C)NC(=O)[C@H](CCCCN)NC(=O)[C@H](CC(C)C)NC(=O)CNC(=O)[C@H](Cc2ccccc2)NC(=O)[C@@H](NC(=O)CNC(=O)[C@H](CCCCN)NC(=O)[C@H](CO)NC(=O)[C@H](CC(C)C)NC(=O)CNC(=O)CCOCCOCCOCCOCCOCCOCCOCCOCCOCCOCCOCCOCCOCCOCCOCCOCCOCCOCCOCCOCCOCCOCCOCCOC)CSSC[C@@H](C(=O)O)NC(=O)CNC(=O)[C@H](CC(C)C)NC(=O)CNC(=O)[C@H](CO)NC(=O)[C@H](CCSC)NC(=O)[C@H](CO)NC(=O)CNC1=O [PEO24-CNP22] | – | – | resistant to NEP degradation over the assay period of 160 minutes | >>160 min |
| CC[C@H](C)[C@@H]1NC(=O)[C@H](CCCNC(=N)N)NC(=O)[C@H](CC(=O)O)NC(=O)[C@H](CC(C)C)NC(=O)[C@H](CCCCN)NC(=O)[C@H](CC(C)C)NC(=O)CNC(=O)[C@H](Cc2ccccc2)NC(=O)[C@@H](NC(=O)CNC(=O)[C@H](CCCNC(=N)N)NC(=O)[C@H](CO)NC(=O)[C@H](CC(C)C)NC(=O)CNC(=O)[C@H](CCCNC(=N)N)NC(=O)[C@@H]2CCCN2C(=O)[C@H](CC(N)=O)NC(=O)[C@H](C)NC(=O)CNC(=O)CCOCCOCCOCCOCCOCCOCCOCCOCCOCCOCCOCCOC)CSSC[C@@H](C(=O)O)NC(=O)CNC(=O)[C@H](CC(C)C)NC(=O)CNC(=O)[C@H](CO)NC(=O)[C@H](CCSC)NC(=O)[C@H](CO)NC(=O)CNC1=O [PEO12-GANPR-CNP22(K4R)] ({CH3O(CH2CH2O)11CH2CH2CO}-GANPRGLSRGCFGLKLDRIGSMSGLGC-OH; disulfide 11-27; C-terminus assumed) | – | – | same half-life as wtCNP22 | – |

Further lines, with some results ahead:

| cGMP Response rel. to 1 uM CNP22, 10 nM [1] | cGMP Response rel. to 1 uM CNP22, 1 uM [1] | SMILES | resistance to NEP cleavage (in words) [2] | NEP Cleavage (t1/2, min) ([2]; 100 uM peptide, 1 ug/mL NEP, 0.1 M Tris pH 7, 37° C., adjusted t1/2, CNP22 normalized to 80 min) |
| --- | --- | --- | --- | --- |
| 14 ± 5 | 77 ± 12 | CC[C@H](C)[C@@H]1NC(=O)[C@H](CCCNC(=N)N)NC(=O)[C@H](CC(=O)O)NC(=O)[C@H](CC(C)C)NC(=O)[C@H](CCCCN)NC(=O)[C@H](CC(C)C)NC(=O)CNC(=O)[C@H](Cc2ccccc2)NC(=O)[C@@H](NC(=O)CNC(=O)[C@H](CCCCN)NC(=O)[C@H](CO)NC(=O)[C@H](CC(C)C)NC(=O)CNC(=O)[C@H](CCC(N)=O)NC(=O)[C@H](CCC(N)=O)NC(=O)[C@H](CC(N)=O)NC(=O)[C@H](C)NC(=O)CNC(=O)[C@H](Cc2c[nH]cn2)NC(=O)[C@@H](NC(=O)[C@H](CC(=O)O)NC(=O)[C@H](Cc2c[nH]cn2)NC(=O)[C@H](CCC(=O)O)NC(=O)[C@H](Cc2c[nH]cn2)NC(=O)[C@@H]2CCCN2C(=O)[C@H](Cc2c[nH]cn2)NC(=O)[C@H](Cc2c[nH]cn2)NC(=O)[C@H](C)NC(=O)CN)[C@@H](C)O)CSSC[C@@H](C(=O)O)NC(=O)CNC(=O)[C@H](CC(C)C)NC(=O)CNC(=O)[C@H](CO)NC(=O)[C@H](CCSC)NC(=O)[C@H](CO)NC(=O)CNC1=O [Analog CR] (H-GAHHPHEHDTHGANQQGLSKGCFGLKLDRIGSMSGLGC-OH; disulfide 22-38; N-terminus and C-terminus assumed) | – | – |
| 16 | 95 | CC[C@H](C)[C@@H]1NC(=O)[C@H](CCCNC(=N)N)NC(=O)[C@H](CC(=O)O)NC(=O)[C@H](CC(C)C)NC(=O)[C@H](CCCCN)NC(=O)[C@H](CC(C)C)NC(=O)CNC(=O)[C@H](Cc2ccccc2)NC(=O)[C@@H](NC(=O)CNC(=O)[C@H](CCCCN)NC(=O)[C@H](CO)NC(=O)[C@H](CC(C)C)NC(=O)CNC(=O)[C@H](CCC(N)=O)NC(=O)[C@H](CCC(N)=O)NC(=O)[C@H](CC(N)=O)NC(=O)[C@H](C)NC(=O)CNC(=O)[C@H](Cc2c[nH]cn2)NC(=O)[C@@H]2CCCN2C(=O)[C@H](Cc2c[nH]cn2)NC(=O)[C@H](CCC(N)=O)NC(=O)[C@H](CCC(=O)O)NC(=O)[C@H](Cc2c[nH]cn2)NC(=O)[C@H](CO)NC(=O)[C@H](Cc2c[nH]cn2)NC(=O)[C@H](Cc2c[nH]cn2)NC(=O)CN)CSSC[C@@H](C(=O)O)NC(=O)CNC(=O)[C@H](CC(C)C)NC(=O)CNC(=O)[C@H](CO)NC(=O)[C@H](CCSC)NC(=O)[C@H](CO)NC(=O)CNC1=O [Analog CQ] (H-GHHSHEQHPHGANQQGLSKGCFGLKLDRIGSMSGLGC-OH; disulfide 21-37; N-terminus and C-terminus assumed) | – | – |
| 1.4 | 2 | CC[C@H](C)[C@@H]1NC(=O)[C@H](CCCNC(=N)N)NC(=O)[C@H](CC(=O)O)NC(=O)[C@H](CC(C)C)NC(=O)[C@H](CCCCN)NC(=O)[C@H](CC(C)C)NC(=O)CNC(=O)[C@H](Cc2ccccc2)NC(=O)[C@@H](NC(=O)CNC(=O)[C@H](CCCNC(=N)N)NC(=O)[C@H](CO)NC(=O)[C@H](CC(C)C)NC(=O)CN)CSSC[C@@H](C(=O)O)NC(=O)CNC(=O)[C@H](CC(C)C)NC(=O)CNC(=O)[C@H](CO)NC(=O)[C@H](CCSC)NC(=O)[C@H](CO)NC(=O)[C@H](CCCNC(N)=O)NC1=O [Analog AF, CNP22, K4R, G15Cit] (H-GLSRGCFGLKLDRI[Cit]SMSGLGC-OH; disulfide 6-22) | – | – |
| 10 | 65 | CC[C@H](C)[C@@H]1NC(=O)[C@H](CCCNC(=N)N)NC(=O)[C@H](CC(=O)O)NC(=O)[C@H](CC(C)C)NC(=O)[C@H](CCCCN)NC(=O)[C@H](CC(C)C)NC(=O)CNC(=O)[C@H](Cc2ccccc2)NC(=O)[C@@H](NC(=O)CNC(=O)[C@H](CCCNC(=N)N)NC(=O)[C@H](CO)NC(=O)[C@H](CC(C)C)NC(=O)CN)CSSC[C@@H](C(=O)O)NC(=O)CNC(=O)[C@H](CC(C)C)NC(=O)CNC(=O)[C@H](CO)NC(=O)[C@H](C(C)C)NC(=O)[C@H](CO)NC(=O)CNC1=O [Analog AG, CNP22, K4R, M17V] (H-GLSRGCFGLKLDRIGSVSGLGC-OH; disulfide 6-22) | – | – |
